# Data taken from patent publication US20180193659A1, “PHOTODYNAMIC THERAPY LIGHT IRRADIATING DEVICE AND LIGHT IRRADIATING METHOD” (Public University Corporation Nagoya City University, priority 2015, published 2018).
# Where two headings read alike, the source gives them in different places.
# Experiments:
# [1] = system: HaCaT cells (human skin keratinocyte cell line); test: Experimental Example 2: cell survival rate of 5-ALA-treated HaCaT cells after 635 nm irradiation under pulse width modulation; assay type: cell-based; settings: 1 mM 5-ALA, 12 J/cm^2, 125 kHz PWM, off time not more than 4 μs
# Experimental: The irradiation was performed using a pulse width modulation control power supply (PWM power supply) with a frequency of 125 kHz capable of adjusting light using pulse width modulation at 256 modes as shown in FIG. 12. Specifically, in the condition (1), light irradiation was performed using pulse width modulation control in which the off time (t(off)) in pulse width modulation was 5.6 μs. In the condition (2), light irradiation was performed using pulse width modulation control in which the off time (t(off)) in pulse width modulation was 5.3 μs. In the condition (3), light irradiation was performed using pulse width modulation control in which the off time (t(off)) in pulse width modulation was 4.8 μs. In the condition (4), light irradiation was performed using pulse width modulation control in which the off time (t(off)) in pulse width modulation was 4.0 μs. In the condition (5), light irradiation was performed using pulse width modulation control in which the off time (t(off)) in pulse width modulation was 2.7 μs. In all the conditions (1) to (5), the pulse period (T) was 8 μs. In the condition (6), light irradiation in which the off time (t(off)) in pulse width modulation was 0 μs, that is, light irradiation that was continuous irradiation under the same condition as that in amplitude variable control was performed.
# [2] = system: HaCaT cells (human skin keratinocyte cell line); settings: 1 mM 5-ALA; for PDT effect (1 - cell survival rate): 0.4 J/cm^2
# Experimental: After 4 hours, the plurality of plates except for one plate were each subjected to five kinds of single-wavelength irradiation and four kinds of multiple-wavelength irradiation (specifically, two-wavelength irradiation) at respective amounts of irradiation of 0.2 J/cm^2, 0.4 J/cm^2, 0.6 J/cm^2, 0.8 J/cm^2, 1.0 J/cm^2, and 1.2 J/cm^2. Specifically, in the five kinds of single-wavelength irradiation, irradiation with each of light having a wavelength of 405 nm, light having a wavelength of 505 nm, light having a wavelength of 545 nm, light having a wavelength of 570 nm, and light having a wavelength of 635 nm was performed. The four kinds of multiple-wavelength irradiation with light in which the light having the wavelength of 405 nm and the light having the wavelength of 505 nm were combined, light in which the light having the wavelength of 405 nm and the light having the wavelength of 545 nm were combined, light in which the light having the wavelength of 405 nm and the light having the wavelength of 570 nm were combined, and light in which the light having the wavelength of 405 nm and the light having the wavelength of 635 nm were combined were performed. In the single-wavelength irradiation and the multiple-wavelength irradiation, as a light source of the light having the wavelength of 405 nm, an LED element in which the energy of light from the light source was 11 mW/cm^2 (irradiation distance: 100 mm) was used. […]
# Subsequently, in the plurality of plates that had been irradiated with light and the plate that had not been irradiated with light, cultivation was performed over 18 hours. The cell survival rate was measured by an MTT assay using an XTT cell proliferation assay kit.
# On the basis of the results of cell survival rate at an amount of irradiation of 0.4 J/cm^2, a therapeutic effect by a photodynamic therapy (hereinafter also referred to as “PDT effect”) was calculated by the following expression (1).
# Herein, the cell survival rate reference value is a value calculated by the following expression (2). […]
smiles,measurement,setting,value
"NCC(=O)CCC(=O)O [5-ALA, δ-aminolevulinic acid]",PDT effect under pulse width modulation versus continuous irradiation,[1],the same as that in continuous irradiation
same,"PDT effect, single-wavelength irradiation","[2]; 4 h, 405 nm compared with 505, 545, 570 and 635 nm",most excellent PDT effect
same,PDT effect (1 - cell survival rate),[2]; 405 nm + 505 nm,excellent PDT effect is obtained
same,PDT effect (1 - cell survival rate),"[2]; 405 nm + any of 545, 570, 635 nm",sufficient PDT effect is not obtained
